Patent US5049551A, “5-fluorouracil, 2'-deoxy-5-fluorouridine and 1-carbomoyl-5-fluorouracil compounds” (UBE Industries, Ltd., priority 1989, dated 1991)

Legend:
KB cell [1] = assay: Cell proliferation inhibition, KB cells, Pharmacological test example 2; type: cell-based; conditions: Homo sapiens, 5×10^3 planted, compound added after 24 hours, 5 days culture, read-out: IC50 (50% cell proliferation inhibiting concentration)
Experimental: To a microwell having 9 holes were planted KB cell with 5×10^3, respectively, and after 24 hours, the compound of the present invention obtained in Example 7 and 5-fluorouracil were added. After cultivating for 5 days, the number of cells were measured and from a cell proliferation inhibiting ratio-concentration curve, 50% cell proliferation inhibiting concentration (IC50 value) at which the inhibiting ratio becomes 50% was evaluated.

KB cell [2] = assay: Cell proliferation inhibition, KB cells, Pharmacological test example 1; type: cell-based; conditions: Homo sapiens, 2×10^4 planted, compound added after 12 hours, 5 days culture, read-out: IC50 (50% cell proliferation inhibiting concentration)
[3] = background; cited from earlier work
[4] = Acute toxicity, oral, Pharmacological test example 3; conditions: in vivo, 7 week-old BDF2 female mouse, 21 days after administration, read-out: ID50 (LD50 from mortality)
Experimental: The compounds of the present invention obtained in Examples 4 and 7 were orally administered to 7 week-old BDF2 female mouse (10 mice per group). After 21 days from the administration, mortality of the mice was judged and LD50 value was evaluated from mortality according to the Richfield-Wilcokson method.

SMILES | IC50 (KB cell [2]) [nM] | LD50 at 504 h [4] [mg/kg] | antitumor effects compared with 5-fluorouracil [3] | further results
O=c1[nH]cc(F)c(=O)[nH]1 [5-Fluorouracil, 5-fluorouracil] | 17700 | 928 |  | IC50 (KB cell [1]): 750 nM; antitumor activity [3]: insufficient; toxicity [3]: potent toxicity
CCCCCCNC(=O)n1cc(F)c(=O)[nH]c1=O [Carmofur, 1-n-hexylcarbamoyl-5-fluorouracil] |  |  | inferior to that of 5-fluorouracil | 
C[C@H]1O[C@@H](n2cc(F)c(=O)[nH]c2=O)[C@H](O)[C@@H]1O [Doxifluridine, 5'-deoxy-5-fluorouridine] |  |  | inferior to that of 5-fluorouracil | 
CCCC(CCC)C(=O)NCC(=O)OC[C@H]1O[C@@H](n2cc(F)c(=O)[nH]c2=O)[C@H](OC(=O)CNC(=O)C(CCC)CCC)[C@@H]1OC(=O)CNC(=O)C(CCC)CCC [Example 1, 2',3',5'-tris-O-[N-(2-n-propyl-n-pentanoyl)-glycyl]-5-fluorouridine] | 2000 | ≥ 5000 |  | 
CCCC(CCC)C(=O)NCC(=O)OC[C@H]1O[C@@H](n2cc(F)c(=O)[nH]c2=O)[C@H](O)[C@@H]1OC(=O)CNC(=O)C(CCC)CCC [Example 4, 3',5'-bis-O-[N-(2n-propyl-n-pentanoyl)-glycyl]-5-fluorouridine] | 1800 | ≥ 3000 |  | 
CCCC(CCC)C(=O)NCC(=O)NCCCCCCNC(=O)n1cc(F)c(=O)[nH]c1=O [Example 7, 1-[6-[N-(2-n-propyl-n-pentanoyl)glycyl]amino-n-hexylcarbamoyl]-5-fluorouracil] |  | ≥ 1000 |  | IC50 (KB cell [1]): 660 nM
O=c1[nH]c(=O)n(C2CCCO2)cc1F (centres unmarked) [Tegafur, 1-(2-tetrahydrofulyl)-5-fluorouracil] |  |  | inferior to that of 5-fluorouracil | 
